# Measurements: US11141371B2, “Extracts of Nannochloropsis sp. and their applications” (Cutech SRL, priority 2014, dated 2021)
# Key:
# [1] = test system: ex-vivo cultured human skin; assay: Melanogenesis in ex-vivo human skin culture (melanin content, Fontana-Masson staining); format: cell-based
# Procedure: The adopted culture medium was a modified William-E, and it was renewed at day three of the tissue culture. […] On a daily basis, 4 μl of these extract preparations were applied topically to the cultured skin samples, while the control group received the same quantity of the pure DMSO. After six days of organ culture, histological sections were prepared from the skin samples, and quantitative changes of melanin content were investigated by adopting the Fontana-Masson staining technique. The variation in melanin content was estimated by image analysis of the microphotographs of histological sections of skin.
# [2] = test system: IL-1α; assay: IL-1α release by ex-vivo skin stimulated with 2% SDS (ELISA); format: cell-based, human; conditions: 2% SDS stimulus, lenitive treatment 10 μM; Table 7
# Procedure: In order to study the biological activity of the ethanol extract (EtOH) from Nannochloropsis sp. on the inflammatory response of skin to irritation, the experimental protocol hereinafter summarized was adopted: • i. ex-vivo skin samples (7 mm in diameter) were cultivated for 24 hours in 6-well plates (4 skin samples/well) with 2.5 ml/well of modified Williams E medium. The experimental design included the following experimental groups, each comprising 8 skin samples cultivated in 2 wells: • 1. control samples cultivated without receive any stimulus or treatment; • 2. samples stimulated with 2% SDS without subsequent lenitive treatment (negative control); • 3. samples stimulated with 2% SDS and then treated with dexamethasone at 10 μM (positive control). • 4. 2 groups of samples stimulated with 2% SDS and then treated with EtOH extract at 1 and 10 μg/ml respectively; • ii. After 24 hours of culture the culture medium was renewed and the experimental groups 2 to 4 received the irritant stimulus (2% SDS) through topical application of 4 μl of preparation for each skin sample. After 3 hours the stimulus was removed by mean of cotton buds and 4 μl of lenitive treatment was then administered topically to groups 3 to 4. Stimulus treatments were applied in 50% DMSO, while the lenitive treatments were in pure DMSO. • iii.
# [3] = test system: human sebaceous glands (hSGs); assay: Sebum (normalized total lipids) of ex-vivo cultured human sebaceous glands; format: cell-based; conditions: 5 μM
# Procedure: Using micro-scissors and tweezers, hSGs were isolated from the pilosebaceous units of a scalp skin sample. They were seeded in 24-well plates at a density of 8 hSGs/well and then cultivated in 500 μl of modified William E medium. After 24 hours of culture, the viability of the hSGs was assessed by means of resazurine assay. […] The control received modified William E medium, while the samples submitted to experimental treatments received the same medium supplemented with the extracts. The culture medium was renewed every other day.
smiles,measurement,setting,value
"O=c1cc(CO)occ1O [KA, Kojic acid]",Melanin content as % ratio of the control group performance,"[1]; 0.1%, Table 6",83.2%
"C[C@@H]1C[C@H]2[C@@H]3CCC4=CC(=O)C=C[C@]4(C)[C@@]3(F)[C@@H](O)C[C@]2(C)[C@@]1(O)C(=O)CO [Dexam., dexamethasone]",IL-1α,[2],48.6 pg/mL
same,"IL-1α release [%], SDS group as reference (100%)",[2],92.2%
"CC1=C(/C=C/C(C)=C/C=C/C(C)=C/C(=O)O)C(C)(C)CCC1 [Retinoic ac., Retinoic acid]",Melanin content as % ratio of the control group performance,"[1]; 10 μM, third donor (Table 5)",82.4%
same,Melanin content as % ratio of the control group performance,"[1]; 100 μM, third donor (Table 5)",88.3%
COc1cc(CNC(=O)CCCC/C=C/C(C)C)ccc1O [Capsaicin],Sebum in hSGs as % ratio of the control group value,[3]; another donor (Table 11),66.5%
same,Sebum in hSGs as % ratio of the control group value,[3]; another donor (Table 12),91.9%
same,Sebum in hSGs as % ratio of the control group value,[3]; another donor (Table 13),45.6%
